Experiment: Human HepG2 cell viability assay in 384 well format
Assay type: toxicity, cell-based
Set-up: dose 125 nL, time 70.5 hour; concentration not given beside the values
Conditions: HepG2 cells, read-out: Inhibition

CN(CCNC(=O)N1CCN(Cc2ccon2)CC1)c1ccccc1
cytotoxicity at 70.5 h: -5.16%

CCCNC(c1cccnc1)c1ccc(F)c(C)c1 (stereo unspecified)
cytotoxicity at 70.5 h: -13.4%

Cc1ncsc1-c1nnc(C2CCN(Cc3ccc(F)cc3)CC2)o1
cytotoxicity at 70.5 h: 8.74%

Cc1nc(CN2CCN(C(=O)Cc3cccc(Cl)c3)CC2)no1
cytotoxicity at 70.5 h: -5.05%

COc1ccc(Cc2ncc3c(n2)CN(C(=O)C(C)(C)C)C3)cc1
cytotoxicity at 70.5 h: -1.36%

O=C(CCC1CCCO1)NCCN1CCCCC1 (stereo unspecified)
cytotoxicity at 70.5 h: -3.64%

CCN(CC1CCCCO1)C(=O)CCNC(=O)c1ccccc1F (stereo unspecified)
cytotoxicity at 70.5 h: -11.6%

Cc1nn(C)c2ncnc(NCc3nncn3C3CCCCC3)c12
cytotoxicity at 70.5 h: -6.04%

CCC(CC)C(=O)NCc1cnn(CC)c1
cytotoxicity at 70.5 h: -13.4%

CCn1cc(-c2cc(C(F)(F)F)nn2CCC#N)cn1
cytotoxicity at 70.5 h: -9.49%

Cc1ccnc2c1NC(=O)CN2C(=O)CCC(F)(F)F
cytotoxicity at 70.5 h: -6.32%

COCCN1C[C@H]2CN(C(=O)NCc3ccccc3)CCN2C1=O
cytotoxicity at 70.5 h: -8.58%

Cn1nc2c(cc1=O)CN(Cc1coc(-c3ccccc3)n1)CC2
cytotoxicity at 70.5 h: 0.822%

Cc1cnc(CNC2CCc3nc(C(C)C)nn3C2)cn1 (stereo unspecified)
cytotoxicity at 70.5 h: -2.01%

COCCc1noc(CN2CCC(c3ccccc3C(=O)O)C2)n1 (stereo unspecified)
cytotoxicity at 70.5 h: -20.1%

O=C(NC1CCN(CC2CCCC2)C1)N1CCC(OCC2CC2)CC1 (stereo unspecified)
cytotoxicity at 70.5 h: 6.83%

CCSc1cc(C(=O)NCC(C)(C)N(C)C)ccn1
cytotoxicity at 70.5 h: -90.6%

Cc1ccsc1C1CC(=O)Nc2c1cnn2C(C)C (stereo unspecified)
cytotoxicity at 70.5 h: -7.26%

CCCNC(=O)NC(=O)CNC(C)(C)c1ccc2c(c1)OCCO2
cytotoxicity at 70.5 h: -2.49%

Cc1cc(C)cc(NC(=O)c2cnc(N3CCN(C)CC3)nc2C)c1
cytotoxicity at 70.5 h: -0.093%

Cc1cc(C)n(CCC(=O)OCC(=O)N2CCc3sccc3C2)n1
cytotoxicity at 70.5 h: -4.48%

COCCc1noc(CN2CCCCC2Cn2cncn2)n1 (stereo unspecified)
cytotoxicity at 70.5 h: -8.74%

COc1cccc(CN2CCN3C(=O)NC[C@H]3C2)n1
cytotoxicity at 70.5 h: -7.27%

CCS(=O)(=O)N1CCC2(CN(c3cccc(C)n3)C2)C1
cytotoxicity at 70.5 h: -4.08%

c1coc(-c2noc(CN3CC(n4cccn4)C3)n2)c1
cytotoxicity at 70.5 h: -7.3%

Cc1nc(CN2CCCN(C(=O)CC(C)n3cccc3)CC2)cs1 (stereo unspecified)
cytotoxicity at 70.5 h: -12.7%

O=C(O)c1cc(S(=O)(=O)Nc2ccc(F)cc2F)cc2c1OCCO2
cytotoxicity at 70.5 h: -2.86%

COCC1CN(Cc2cc(C)on2)Cc2cn(C)nc21 (stereo unspecified)
cytotoxicity at 70.5 h: 3.15%

Cc1cccnc1NC(=O)C1CCCN1Cc1ccccc1 (stereo unspecified)
cytotoxicity at 70.5 h: 8.68%

CCc1ccc2ncn(Cc3ncc[nH]3)c(=O)c2c1
cytotoxicity at 70.5 h: -18.6%

Cc1c(C)n(CC(O)CN2CCC(C)CC2)c2c(Cl)cccc12 (stereo unspecified)
cytotoxicity at 70.5 h: 14.8%

COc1ccc(C)cc1CN1CCN(Cc2nccn2C)CC1
cytotoxicity at 70.5 h: 1.89%

CC(=O)NCCNC(=O)NCCc1c(C)cc(C)cc1C
cytotoxicity at 70.5 h: 0.521%

O=C1CCC2(CCN(Cc3nccs3)CC2)N1Cc1ccccc1
cytotoxicity at 70.5 h: -7.75%

Cc1cnn(CCNC(C)c2nnc(-c3ccccc3)o2)c1 (stereo unspecified)
cytotoxicity at 70.5 h: -7.05%

CCCn1nc(C2CCNCC2)n(Cc2ccccc2)c1=O
cytotoxicity at 70.5 h: -7.28%

Cc1nn(CCN2CCSCC2)cc1CNCC1CC1
cytotoxicity at 70.5 h: -14.6%

Cc1nccn1[C@@H]1CC[C@@H](NC(=O)CCOc2ccccc2)[C@H]1O
cytotoxicity at 70.5 h: 16.9%

Cc1[nH]c(-c2ccccc2)nc1C(=O)N1CCC(O)(CO)CC1
cytotoxicity at 70.5 h: 17.9%

CCN(CC)S(=O)(=O)c1cc(Br)ccc1OC
cytotoxicity at 70.5 h: -7.07%

O=S1(=O)COCCN1Cc1cccc(Cl)c1
cytotoxicity at 70.5 h: -8.17%

COCCC1(C(=O)O)CCN(c2cc(C)c3ccccc3n2)CC1
cytotoxicity at 70.5 h: 18.8%

COc1ccc(C(C)C)cc1C1CC(=O)NCc2nc(N(C)C)sc21 (stereo unspecified)
cytotoxicity at 70.5 h: 13.4%

CN(CCCNc1cc(N2CCCC2CO)ncn1)S(C)(=O)=O (stereo unspecified)
cytotoxicity at 70.5 h: 11.1%

CC(NC(=O)NCc1cccnc1N1CCCCC1)c1nccs1 (stereo unspecified)
cytotoxicity at 70.5 h: -4.81%

O=C(c1cnoc1)N1CCC[C@]2(C[C@@H](Oc3ccccn3)CO2)C1
cytotoxicity at 70.5 h: -6.93%

O=C(NS(=O)(=O)c1ccc(F)c(F)c1)c1cscn1
cytotoxicity at 70.5 h: 17.8%

CC(C)OCCCNC(=O)c1ccc(-c2ccco2)[nH]c1=O
cytotoxicity at 70.5 h: -2.82%

CC[S+]([O-])CCc1nc(CC(C)C)nn1-c1ccc2c(c1)OCCO2 (stereo unspecified)
cytotoxicity at 70.5 h: 5.5%

FC(F)(F)c1cccc(OC2CCN(Cc3c[nH]cn3)CC2)c1
cytotoxicity at 70.5 h: 45.6%

Cc1nc(CCN(C)C(=O)CN2CCCCCC2)no1
cytotoxicity at 70.5 h: -9.68%

O=C(NC[C@]12COC[C@H]1CN(C1CCOCC1)C2)c1ccco1
cytotoxicity at 70.5 h: -0.469%

COCCNC(=O)c1ccccc1-n1cc(CN)cn1
cytotoxicity at 70.5 h: -1.19%

CC(O)CN1CCN(C(=O)c2cccc3[nH]ncc23)CC1 (stereo unspecified)
cytotoxicity at 70.5 h: -3.67%

Cc1noc(C2CCN(c3oc(C)nc3C#N)CC2)n1
cytotoxicity at 70.5 h: 2.04%

Cc1ccc(NCCCc2c(C)noc2C)nn1
cytotoxicity at 70.5 h: -6.84%

CC1(C(=O)NCc2cccc(C(F)(F)F)c2)CCOCC1
cytotoxicity at 70.5 h: -5.33%

Cc1noc(C)c1CN1CCOC2(CCCN(c3ccccn3)C2)C1 (stereo unspecified)
cytotoxicity at 70.5 h: -8.65%

CCN1C(=O)CCCC12CCCN(C(=O)c1conc1C)C2 (stereo unspecified)
cytotoxicity at 70.5 h: -12.9%

O=C(CN1CCCC(Cn2cncn2)C1)NCCCc1ccccc1 (stereo unspecified)
cytotoxicity at 70.5 h: -2.31%

CN(CC1CCCCO1)c1ncnc2cc(F)ccc12 (stereo unspecified)
cytotoxicity at 70.5 h: -9.25%

Cc1ccc(N2CCCC(NCC(=O)NC(C3CC3)C3CC3)C2)nn1 (stereo unspecified)
cytotoxicity at 70.5 h: -8.53%

Cn1cc(-c2nnn3c2COC(CNCc2nccs2)C3)cn1 (stereo unspecified)
cytotoxicity at 70.5 h: -25.2%

CCOc1cc(C(=O)N2CCOCC2)cc2occc12
cytotoxicity at 70.5 h: 22.3%

COc1c(CNC2CCN(c3ccccn3)CC2)c(C(C)C)nn1C
cytotoxicity at 70.5 h: 5.04%

CCn1nc(C)c(CCNC(=O)C2CCCN(CC(N)=O)C2)c1C (stereo unspecified)
cytotoxicity at 70.5 h: 19.1%

NC(=O)COc1ccc(CN2CC[C@@]3(O)CCCC[C@H]3C2)cc1Cl
cytotoxicity at 70.5 h: -2.71%

O=C(C1CC1)N1CCC(c2nc(O)c3c(n2)CCN(C2CCCC2)C3)C1 (stereo unspecified)
cytotoxicity at 70.5 h: -6.87%

Cc1nc2c(c(=O)n1C)CN(C(=O)C1CCCN(C3CCCC3)C1)C2 (stereo unspecified)
cytotoxicity at 70.5 h: 6.1%

CC(C)COCC(NC(=O)c1cc[nH]n1)c1ccco1 (stereo unspecified)
cytotoxicity at 70.5 h: 4.11%

COc1cccn(C(C)C(=O)NC2CCCC2)c1=O (stereo unspecified)
cytotoxicity at 70.5 h: -1.93%

Cc1cc(Nc2nc(C)cs2)nc(C2CCCCN2CCO)n1 (stereo unspecified)
cytotoxicity at 70.5 h: 32.4%

Cc1ccc2oc(C(=O)N3CCCC(n4ccnc4C)C3)cc2n1 (stereo unspecified)
cytotoxicity at 70.5 h: 0.879%

CO[C@@H]1CC[C@H]2[C@H]1OCCN2Cc1ccc(F)c(F)c1
cytotoxicity at 70.5 h: -9.19%

COCCN1CC=C(c2cccc(OC)c2)CC1
cytotoxicity at 70.5 h: 1.42%

O=C(NCc1nncn1C1CC1)c1ccccc1Oc1cccnc1
cytotoxicity at 70.5 h: -7.51%

CC(C)N(C)Cc1nnc2n1CCCN(c1ncccn1)C2
cytotoxicity at 70.5 h: -2.54%

O=C1CC(NCc2ccc(OC(F)F)cc2)CN1Cc1cccc(F)c1 (stereo unspecified)
cytotoxicity at 70.5 h: -4.49%

CN(C(=O)COc1ccc(-c2noc(C3CCCO3)n2)cc1)C1CC1 (stereo unspecified)
cytotoxicity at 70.5 h: 0.982%

Cc1cc2ccccc2n1CCC(=O)NCCN(C)S(C)(=O)=O
cytotoxicity at 70.5 h: -13.9%

c1cc(-c2nnc([C@H]3CCN(C4CCOCC4)C3)o2)ccn1
cytotoxicity at 70.5 h: 2.55%

Cc1csc(CNC(=O)N2CCN(Cc3ccco3)CC2)n1
cytotoxicity at 70.5 h: -5.98%

COc1cccc(OCC(=O)Nc2cc(C)cnc2OC)c1
cytotoxicity at 70.5 h: 2.85%

O=C(NCC1CCOC1)c1csc(-c2ccc(Cl)cc2)n1 (stereo unspecified)
cytotoxicity at 70.5 h: -26.9%

CN(C)S(=O)(=O)N1CCCC(C)(c2ncc(C(N)=O)s2)C1 (stereo unspecified)
cytotoxicity at 70.5 h: 5.78%

c1nc2c(c(C3CCOC3)n1)CCN(Cc1ccoc1)CC2 (stereo unspecified)
cytotoxicity at 70.5 h: 7.95%

Cc1c(-c2c(-c3ccccc3)ncn2[C@H](CO)C(=O)O)cnn1C
cytotoxicity at 70.5 h: -7.01%

Cc1ccc(-c2nc(CCNC(=O)CCN3CCOC3=O)co2)cc1
cytotoxicity at 70.5 h: -2.58%

CS(=O)(=O)NCc1noc2c1CN(C(=O)C1CC1)CC2
cytotoxicity at 70.5 h: -7.86%

CCc1ncc2c(n1)CN(Cc1nc(-c3cccnc3)no1)CC2
cytotoxicity at 70.5 h: -6.75%

COc1cc(NC(=O)Cn2ccc3sc(C)cc3c2=O)cc(OC)c1
cytotoxicity at 70.5 h: -22%

CC1CCN(CCNC(=O)C(C)n2cncn2)CC1 (stereo unspecified)
cytotoxicity at 70.5 h: -2.14%

Cc1ccccc1C(C#N)NC(=O)c1cccc2c1OCCO2 (stereo unspecified)
cytotoxicity at 70.5 h: 11%

CC(C)(O)CN1CCN(C(=O)c2cccnc2O)CC1
cytotoxicity at 70.5 h: -2.58%

O=C(c1cc(=O)[nH]c(=O)[nH]1)N1CCCCC1c1nc2cc(F)ccc2[nH]1 (stereo unspecified)
cytotoxicity at 70.5 h: -6.77%

O=C(O)c1cc2n(n1)CCCN(C(=O)CCc1c[nH]c3ccccc13)C2
cytotoxicity at 70.5 h: -16.4%

COc1ccc(Cl)cc1NCc1nc2[nH]c(C)c(C)c(=O)n2n1
cytotoxicity at 70.5 h: -4.46%

COc1c(CNC2CCN(C(C)(C)C)CC2)c(C(C)C)nn1C
cytotoxicity at 70.5 h: 3.99%

FC(F)(F)c1cccc(CN2CCOC[C@H](Oc3cccnc3)C2)c1
cytotoxicity at 70.5 h: -1.63%

Cc1cnn(CCCNC(=O)N2CCCCC(N3CCCC3)C2)c1 (stereo unspecified)
cytotoxicity at 70.5 h: -6.01%

COC(C)c1noc(CN(C)c2nccnc2C#N)n1 (stereo unspecified)
cytotoxicity at 70.5 h: 1.72%

CC(C)(C)C(=O)NS(=O)(=O)c1ccc(C#N)c(C(F)(F)F)c1
cytotoxicity at 70.5 h: 7.04%

Cn1cc(CN2CCn3cc(Cn4cccn4)nc3C2)cn1
cytotoxicity at 70.5 h: 44.1%

COc1cccc(C(=O)N2CC[C@@H]3[C@H](CC2)N(C)CCS3(=O)=O)c1
cytotoxicity at 70.5 h: -5.98%

COCCOc1cc(C)ccc1NC(=O)N(C)Cc1cnn(C)c1
cytotoxicity at 70.5 h: -13.2%

Cn1cc(C[C@H]2[C@@H](O)CCN2C(=O)C2CCC2)cn1
cytotoxicity at 70.5 h: -1.34%

CC/C=C(/C)C(=O)NCCc1csc(N2CCCC2)n1
cytotoxicity at 70.5 h: -0.998%

CC(C)CC(O)C1CCN(C(=O)c2ccc(C(C)C)[nH]c2=O)CC1 (stereo unspecified)
cytotoxicity at 70.5 h: 18.9%

COc1ccc(C(=O)N2CC(c3ccncc3)C2)c(OC)c1OC
cytotoxicity at 70.5 h: -5.75%

CCOC(=O)C1(CCOC)CCCN(Cc2nccn2CC)C1 (stereo unspecified)
cytotoxicity at 70.5 h: -18.3%

CCOc1ccc2cc(C(=O)NCCC(=O)N(C)C)[nH]c2c1
cytotoxicity at 70.5 h: -7.75%

CC(C)OC(=O)[C@@H]1CCN(C(=O)c2ccccn2)[C@@H]1c1ccc(F)cc1
cytotoxicity at 70.5 h: -6.08%

CN(C)C(=O)CNC(=O)CCn1ncc2c(Cl)cccc21
cytotoxicity at 70.5 h: -5.6%

NC(=O)c1cnc(-c2ccccc2)nc1CCNC(=O)CN1CCCC1
cytotoxicity at 70.5 h: 9.13%

Cc1nn(C)cc1C(=O)N1CCCC(c2nccn2Cc2cscn2)C1 (stereo unspecified)
cytotoxicity at 70.5 h: -7.69%

CC(NCc1ccc(F)cc1)c1ccc(OCC(=O)NC2CC2)cc1 (stereo unspecified)
cytotoxicity at 70.5 h: 25.6%

Source: ChEMBL document CHEMBL3507680, “University of Dundee, Gates Library screen for HepG2 cell viability”
